Measured values from PubChem BioAssay AID463074 (Broad Institute, 2010).
Activity calls are given as the source filed them.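 Rule for the calls: active = AC50 no more than tenfold above the top dose tested, or full inhibition at every dose with a flat fit (cut at about 19 µM in these data); inconclusive = flat curve fit with inhibition between 30% and 70%, or poor fit; inactive = AC50 more than tenfold above the top dose tested.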

Test system: HMLE_sh_eGFP viability, CellTiter-Glo luminescence, 72 h
Experiment: viability loss of HMLE_sh_eGFP cells – cell-based, luminescence, counter-screen for HMLE_sh_ECad selective toxicity project, dose response (AID 463074);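 note: counterscreen control line to flag general toxicity for the HMLE_sh_ECad screen; potency for loss of viability as luminescence drops below DMSO wells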

| Compound | AC50 |
| --- | --- |
| c1cc2cc(-c3c(-c4ccc5c(c4)OCO5)noc3-c3ccsc3)ccc2[nH]1 | 4.19 µM |
| CCN1C(=O)C(CC(=O)Nc2ccc(OC)cc2)N(CCCN2CCN(c3ccc(F)cc3)CC2)C1=S (stereo unspecified) | 7.04 µM |
| Cc1ccc(Nc2cc(C)c3ccc(O)cc3n2)cc1C | 9.16 µM |
| COc1cccc(NP(=O)(Oc2ccccc2)Oc2ccccc2)c1 | 15.1 µM |
| O=C1NC(=O)N(Cc2ccccc2)C(=O)/C1=C/C=C/c1ccco1 | 2.04 µM |
| COc1ccc(C2NCCc3c2[nH]c2ccccc32)cc1COc1ccc(F)cc1 (stereo unspecified) | 7.34 µM |
| COc1ccc(C(CCNCc2ccc(OC(C)C)cc2)c2ccccc2OC)cc1 (stereo unspecified) | 4.66 µM |
| Cc1c(C(=O)N(Cc2ccccc2)Cc2cccs2)cnn1-c1ccc(Cl)cc1 | 1.42 µM |
| Cc1nn(Cc2ccc(C(=O)Nc3nccs3)cc2)c(C)c1Cl | 0.661 µM |
| O=C(NCc1nc(-c2ccc(C(F)(F)F)cc2)no1)Nc1cc(Cl)cc(Cl)c1 | 2.46 µM |
| Nc1cc(-c2ccc(OC(F)(F)F)cc2)nn1-c1ccc(Cl)c(Cl)c1 | 5.83 µM |
| NC(=O)CC(NC(=O)Cc1cccc2ccccc12)c1ccc(NCc2ccc(F)cc2)c([N+](=O)[O-])c1 (stereo unspecified) | 19.8 µM |
| CCCc1cc(=O)[nH]c(SCC(=O)Nc2sc(C(N)=O)c(C)c2C(=O)OCCOC)n1 | 4.25 µM |
| CC(C)(C)c1ccc(/C=C/C(=O)c2ccc(NC3=NCCCS3)cc2)cc1 | 6.11 µM |
| CC(C)(c1ccccc1)c1ccc(OCCN2CCCC2)cc1 | 0.903 µM |
| Cc1ccc(SC[C@H](C)CN2CC[C@H](C(C)(C)C)CCC2=O)cc1 | 6.63 µM |
| COc1ccc(-c2sc3ccc(N4CCOCC4)cc3c2C#CCCO)cc1 | 4.73 µM |
| O=C(O)CCN1C(=O)C(=C2CCCCCC2)SC1=S | > 19.5 µM (inactive) |
| COc1ccc2nc(C)cc(SCC(=O)N/N=C/c3cccc4ccccc34)c2c1 | 1.86 µM |
| COc1ccc(-c2csc3nc(-c4ccccc4F)oc(=O)c23)cc1OC | 3.86 µM |
| CCc1c(C)sc2nc(C(C)C)nc(SCC(=O)N3CCc4ccccc4C3)c12 | 4.22 µM |
| O=c1[nH]c(=O)n(CCC2=CCCCC2)c(O)c1/C=N/Nc1ccccc1 | 3.76 µM |

| Compound | AC50 |
| --- | --- |
| CCCC(C)c1nnc(NC(=O)COc2ccc3c(c2)OCO3)s1 (stereo unspecified) | 9.04 µM |
| O=C(N/N=C/c1cc(Cl)cc([N+](=O)[O-])c1O)NC12CC3CC(CC(C3)C1)C2 | 4.59 µM |
| CN1CCN(c2ccc(NC(=O)c3ccc(Cl)cc3)cn2)CC1 | > 19.5 µM (inactive) |
| CCOC(=O)N1CCN(CCC(=O)c2ccc(Cl)cc2)CC1 | 14 µM |
| COC(=O)C1=C(C)N(Cc2ccccc2)C(=NCc2ccccc2)N[C@H]1c1cccc(C(F)(F)F)c1 | 3.68 µM |
| O=c1cc(N2CCCCC2)c(-c2ccccc2)nn1Cc1ccccc1 | 12 µM |
| CN(CCO)c1cc(Sc2nc3ccccc3s2)c2nonc2c1[N+](=O)[O-] | 2.49 µM |
| COc1ccccc1OCCN1CSC(=S)N(C)C1 | 5.24 µM |
| CC(C)c1ccc(N2C(=O)NC(=O)/C(=C/C=C/c3ccco3)C2=O)cc1 | 2.29 µM |
| COc1cc(CNC(C)(C)CO)cc(Br)c1OCc1ccc(Cl)cc1Cl | 6.07 µM |
| Cc1cc(NC(=O)/C=C/c2ccc(Cl)cc2)no1 | > 19.5 µM (inactive) |
| CCOC(=O)c1cccc(C2=CC(=O)C[C@H](c3ccc(Cl)cc3)C2)c1 | 2.82 µM |
| CCCCn1c(=O)c(C(=O)NCc2ccccc2)c(O)c2ccccc21 | 8.36 µM |
| Cc1ccc(-c2cc(C(=O)N3N=C(C(F)F)CC3(O)C(F)F)c3ccccc3n2)cc1C (stereo unspecified) | 4.55 µM |
| COc1cc(OC)cc(-c2sc3ccc(OC)cc3c2C#CC2(N)CCCCC2)c1 | 3.23 µM |
| CN(C)/C=C(\C=N\OCc1ccc(Cl)cc1Cl)C(=O)Nc1ccc(Cl)c(Cl)c1 | 4.22 µM |
| CCc1cc2ccc(C)cc2nc1SCC(=O)c1ccc(NC(C)=O)cc1 | 9.7 µM |
| C1=C(c2sc3ccccc3c2-c2ccc(OCCN3CCOCC3)cc2)CCCC1 | 1.94 µM |
| CCCCN(C)c1nc(-c2ccco2)c2c(c1C#N)CC(C)(C)OC2 | 11.7 µM |
| Cc1ccc(C(=O)NC2c3ccccc3-c3ccccc32)cc1 | 0.816 µM |
| CCCC[C@@H](CN[C@H](C)CNC)NCC1CCC(C(C)(C)C)CC1 (stereo partly specified) | 6.37 µM |
| O=C(NCc1ccc(F)cc1)C(=O)Nc1nc(C23CC4CC(CC(C4)C2)C3)cs1 | 2.13 µM |

| Compound | AC50 |
| --- | --- |
| COc1ccc(-c2cc(C(=O)N3CC4(C)CC3CC(C)(C)C4)no2)cc1OC (stereo unspecified) | 10.6 µM |
| COc1ccc(-n2nc3c(N4CCC(C(=O)NCCc5ccccc5C)CC4)nnc(C)c3c2C)cc1 | 4.85 µM |
| CC1(C)CN(c2ccccc2)N(C(=O)c2ccc(F)cc2)C1=O | 5.6 µM |
| CC1=NN(c2ccccc2)C(=O)/C1=C/C=C/c1ccccc1 | 3.57 µM |
| COc1cccc(N2CCN(Cc3nc4scc(-c5ccccc5)c4c(=O)[nH]3)CC2)c1 | 2.59 µM |
| Cc1cc(N2CCN(c3ccc(C(F)(F)F)cc3[N+](=O)[O-])CC2)c2ccccc2n1 | 1.38 µM |
| C=C(C)COc1ccc(-c2n[nH]c(C)c2-c2ccc(OC)cc2)c(O)c1 | 4.47 µM |
| Cc1cccc(NC(=S)N/N=C/c2c[nH]c3ccccc23)c1 | 1.63 µM |
| Cc1ccc(C(=O)CSC2=C(C#N)C(c3ccco3)C3=C(CC(C)(C)CC3=O)N2)cc1 (stereo unspecified) | 3.33 µM |
| COc1ccc(-c2nn(-c3ccccc3)cc2/C=N/N2C(=O)CSC2=S)cc1 | 3.97 µM |
| CC1=CC(C)(C)N(S(=O)(=O)c2ccc(F)cc2)c2ccc(C)cc21 | 2.61 µM |
| C[C@H](CO)N1C[C@H](C)[C@H](CN(C)Cc2ccc(-c3ccccc3)cc2)Oc2ccc(NS(=O)(=O)c3ccccc3)cc2CC1=O | 4.74 µM |
| Cn1cncc1C#Cc1c(-c2ccsc2)sc2ccccc12 | 7.26 µM |
| Cc1nn(-c2ccccc2)c(N2CCCCC2)c1/C=N/O | 1.69 µM |
| O=C(Nc1ccn(Cc2ccccc2F)n1)c1ccc(COc2ccccc2Cl)cc1 | 3.52 µM |
| O=C(Nc1cccc(Cl)c1N1CCCC1)c1cccc(-c2cc3ccccc3oc2=O)c1 | 0.869 µM |
| CCCCCCSc1cccc(-c2nc3ccc(Cl)cn3c2NCc2ccccc2)c1 | 3.12 µM |
| CC(C)(C)c1ccc(Oc2ccc(NC(=O)c3cccs3)cn2)cc1 | 2.88 µM |
| COc1ccc2c(C)nc(Nc3nc(C)c(C)c(=O)[nH]3)nc2c1 | 7.16 µM |
| COc1cc(/C=N/NC(=O)c2ccc(CN(C)S(=O)(=O)c3ccc(C)cc3)cc2)ccc1O | 5.13 µM |
| CCC/C(=C1/c2ccccc2C(=O)N1c1ccccc1)c1ccc2[nH]ccc2c1 | 1.67 µM |
| CCn1c(C)c(C)c2cc(C(=O)N3CCN(c4cccc(C)c4C)CC3)ccc21 | 5.44 µM |

| Compound | AC50 |
| --- | --- |
| CCOC(=O)c1c(C)oc2c(F)c(F)c(F)c(F)c2c1=O | 2.02 µM |
| Cc1ccc(C2C(/C=C3/SC(=S)NC3=O)=C(c3cccs3)Oc3ccccc32)cc1 (stereo unspecified) | 1.21 µM |
| O=C(O)c1ccc(C=C(c2nc3ccccc3s2)c2nc3ccccc3s2)cc1 | 5.12 µM |
| O=C(NCc1ccc2c(c1)OCO2)c1nc(S(=O)(=O)Cc2ccccc2F)ncc1Cl | 6.81 µM |
| CCN(c1ccccc1)S(=O)(=O)c1cccc(C(=O)NCC(c2cccs2)N2CCOCC2)c1 (stereo unspecified) | > 19.5 µM (inactive) |
| CCOC(=O)c1c(C)sc2c1N(C(=O)CCl)c1cc(Cl)ccc1S2 | 3.66 µM |
| O=C(O)c1cccc(N/N=C(\N=Nc2ccccc2)c2ccccc2)c1 | 4.25 µM |
| CC(=O)Oc1ccc(C#C/C=C2\c3ccccc3C(=O)N2c2ccccc2)cc1 | 4.92 µM |
| O=C(Nc1ccc(OCC(F)(F)C(F)F)c(C(F)(F)F)c1)c1ccc(Cl)cc1 | 3.19 µM |
| COc1ccc(NS(=O)(=O)c2cccc(C(=O)N/N=C(\C)c3ccc(-n4ccnc4)cc3)c2)cc1 | > 19.5 µM (inactive) |
| O=C(c1ccccc1)c1nn(-c2ccc(Cl)cc2)c(=O)cc1C(F)(F)F | 3.68 µM |
| COc1ccc(C(=O)/C=C2/C(=O)Nc3ccccc32)c(OC)c1 | 6.75 µM |
| O=C1c2cc(Br)ccc2N(Cc2ccc(Br)cc2)S(=O)(=O)C1c1cc(Cl)c(Cl)cc1[N+](=O)[O-] (stereo unspecified) | 3.07 µM |
| CCCCCCCCCc1nc2sc3c(c2c(=O)n1NC(=O)c1ccccc1[N+](=O)[O-])CC(C)(C)OC3 | 1.21 µM |
| Cc1cc(C(=O)NNc2ccc(F)cc2F)no1 | 1.6 µM |
| O=C(Nc1ccon1)c1nc[nH]c1C(=O)NCc1ccccc1 | 1.77 µM |
| O=C(NCCN1CCCC1)c1ccc2c(c1)N(Cc1cccc(Cl)c1)C(=O)c1ccccc1S2(=O)=O | > 19.5 µM (inactive) |
| NC(=O)CC(NC(=O)c1ccc(Br)cc1)c1ccc(NCc2ccc(F)cc2)c([N+](=O)[O-])c1 (stereo unspecified) | 4.61 µM |
| COc1cc(OC)cc(C(=O)Nc2ccc(Nc3ccccc3)cc2)c1 | 7.41 µM |
| COc1ccc(OC)c(Nc2c3ccccc3nc3ccccc23)c1 | 2.7 µM |
| Cn1nnnc1Sc1ncnc2scc(-c3ccc(C(F)(F)F)cc3)c12 | 3.03 µM |
| CC1=NN(c2ccccc2)C(=O)/C1=C\C=C\c1ccccc1 | 3.55 µM |

| Compound | AC50 |
| --- | --- |
| CCN(Cc1ccccc1)S(=O)(=O)c1ccc(C(=O)N(CCCN(C)C)c2nc3cc(C)cc(C)c3s2)cc1 | 3.75 µM |
| Cc1cc(=O)[nH]c(N/N=C/c2ccccn2)n1 | 1.53 µM |
| CC(=O)Oc1c(Cl)cc(Cl)cc1/C=C/c1ccc2ccccc2n1 | 2.86 µM |
| CC(=O)c1c(C)oc2c1C(=O)c1ccccc1C2=O | 4.4 µM |
| COc1ccc(/C=N/N(Cc2ccccc2)c2ccccc2)cc1O | 6.77 µM |
| CC(C)c1ccc(NC(=O)c2snc3ccc(Cl)cc23)cc1 | 3.62 µM |
| Clc1ccc(COC(Cn2ccnc2)c2ccc(Cl)cc2Cl)c(Cl)c1 (stereo unspecified) | 6.47 µM |
| COc1ccc(N=N/C(=C\O)C(=O)c2cccs2)cc1 | 5.35 µM |
| O=C(NCc1nc(-c2ccc(C(F)(F)F)cc2)no1)Nc1ccc(OC(F)(F)F)cc1 | 3.12 µM |
| CCCC(c1nnnn1CC1CCCO1)N1CCN(c2cc(Cl)ccc2C)CC1 (stereo unspecified) | 2.78 µM |
| O=C1C2=C(NC(=S)NC2c2ccc(Cl)cc2)NC(c2ccc(Cl)cc2)N1c1ccc(Cl)cc1 (stereo unspecified) | 6.8 µM |
| CCOc1ccc(/C=C/C(O)=C2/C(=O)N(C)C3(C)CC2c2ccccc2O3)cc1OC (stereo unspecified) | 5.95 µM |
| COc1ccc(Cn2nnnc2C(C(C)C)N(Cc2ccco2)Cc2cccs2)cc1 (stereo unspecified) | > 19.5 µM (inactive) |
| O=C(/C=C/c1ccc(F)cc1)c1cc(Br)ccc1O | 14.1 µM |
| CCOC(=O)c1cnc2ccc(OCC)cc2c1NCc1ccccc1OC | 4.7 µM |
| CC(C)(C)NC(=O)Cn1nnc(-c2ccc(OCc3c(F)cccc3Cl)cc2)n1 | 1.79 µM |
| O=c1nc(/C=C/c2ccc(Cl)cc2Cl)cc(C(F)(F)F)[nH]1 | 1.55 µM |
| Cc1ccc2[nH]c3nc(N/N=C/c4cccc(O)c4)nnc3c2c1 | 0.248 µM |
